The values below come from patent US5434186A, “Carboxylic acid leukotriene B4 antagonists” (Hoffmann-La Roche Inc., priority 1993, dated 1995).

The term pKi denotes −log10 of the Ki, conventionally taken in molar units. Low values mean a high Ki, high ones a low Ki. What is called pIC50 is −log10 of the IC50, conventionally taken in molar units.

Assay [1] has as its target T1, LTB4 Receptor (Homo sapiens, UniProt Q15722).
T1 construct: Isolated human neutrophils in Gey's salt solution; endogenous in cells; host or cells: human neutrophils isolated from blood (90-95% neutrophils)
Nature of the assay: LTB4 Receptor Binding Assay (inhibition of 3H-LTB4 binding, human neutrophils). The following applies: 0.5 nM 3H-LTB4, 45 minutes on ice, isolated human neutrophils. The procedure:
Binding assays can be performed in microtiter wells. Isolated human neutrophils in Gey's salt solution are incubated on ice for 45 minutes with 0.5 nM ^3 H-LTB4 in the presence or absence of test compounds. Assays are terminated by adding 12 ml ice cold 50 mM Tris (pH 7.4) followed by rapid filtration under vacuum through GF/C filters. Radioactivity is determined by scintillation counting. Non specific binding is defined as the binding not displaced by 100 fold excess of unlabelled LTB4. Specific binding is defined as the difference between total binding and non-specific binding. Non linear analysis of the binding data is performed using LIGAND (Munson and Rodbard, 1980). Ki (Inhibition Constant) values were determined using the Cheng-Prusoff relationship (Cheng and Prusoff, 1973).
(§1) Human neutrophils are prepared from citrated or heparinized blood. The blood was diluted 1:1 with Hank's balanced salt solution (HBSS) minus calcium and magnesium and underlayed with 10 ml lymphocyte separation medium (Organon Teknika), followed by centrifugation at 500× g for 30 min., at room temperature. Supernatants are removed down to the red blood cell pellet. HBSS minus calcium and magnesium are added to give 25 ml. To this are added 25 ml 6% dextran in 0.85% NaCl. Samples are mixed and allowed to stand 20 min at room temperature. Supernatants are removed and centrifuged at 500× g for 5 min at 4° C. Pellets are resuspended with 20 ml 0.2% saline for 20 sec followed by the addition of 20 ml 1.6% saline. Samples are centrifuged at 500× g for 5 min at 4° C. The lysis is repeated and the cells (90-95% neutrophils) are resuspended at 2× 10^6 cell/ml in GEY's salt solution.

Assay [2] deals with LTB4 mediated calcium fluxes in human neutrophils. Description: Calcium Flux Assay (inhibition of LTB4 mediated calcium fluxes in human neutrophils). Type of assay: cell-based. The conditions noted are these: Neutrophil; Fura2 labelled human neutrophils, 2.4 nM LTB4. The procedure: as §1
LTB4 induced changes in intracellular calcium concentration are measured using Fura2 labelled human neutrophils. Cells at a concentration of 2-5×10^6 /ml are labelled with 5 μM Fura2 for 30 minutes in Hank's balanced salt solution without calcium and magnesium. The cells are washed and resuspended at a final concentration of 1-2×10^7 cells/ml in Gey's solution. Calcium fluxes are initiated by the addition of 2.4 nM LTB4. Test compounds at appropriate concentrations are added to the cells just prior to the addition of LTB4. […] Fluorescence measurements are made in a Perkin Elmer model LS-5B spectrofluorimeter at a temperature setting of 37° C. Calcium concentrations are determined using the ratio method (ratio of cell fluorescence to media fluorescence).
When representative compounds of formula I of the invention were tested, the results set forth in Table H and expressed as inhibition of LTB4 mediated calcium fluxes in human neutrophils, were obtained.
On the technique in general: A change in cytosolic calcium serves as a functional read-out for many receptors and channels.

For assay [3], the system named is LTB4 -induced bronchoconstriction. Description: Guinea Pig Bronchoconstriction In Vivo (LTB4-induced). The following applies: Cavia porcellus, iv, i.v. five minutes prior to LTB4 (1 μg/kg i.v.), read-out: ID50 (mg/kg), i.v., LTB4-induced bronchoconstriction. More on the design: species or system guinea pig (Hartley strain). The procedure: Male guinea pigs (Hartley strain) weighing 300 to 500 g are anesthetized with urethane (2 g/kg) intraperitoneally and a polyethylene cannula is inserted into the jugular vein for drug administration. Tracheal pressure is recorded from a cannula inserted into the trachea and connected to a Gould P23ID pressure transducer. After surgical preparation of the animals, a period of time is allowed for pulmonary functions to stabilize. The test compound is administered intravenously five minutes prior to leukotriene B4 administration according to the following protocol: Animals are paralyzed with succinylcholine (1.2 mg/kg i.v.) and mechanically respirated (Harvard rodent respirator) at 40 breaths/minute and 2.5 cc tidal volume. Propranolol (0.1 mg/kg) is then administered intravenously one minute prior to leukotriene B4 administration. Animals are then challenged with an intermediate constrictory dose of leukotriene B4 (1 μg/kg) delivered intravenously.
The change (cm H2 O) between pre and peak ventilatory pressure readings is averaged for five control and five drug treated animals. The percent inhibition is calculated from the formula:
((Control-Drug Treated)/Control)×100
When representative compounds of formula I of the invention were utilized as the test compounds the following results were obtained: […]

Assay [4] shares this test system. The assay is described as above. More on the design: species or system guinea pig (Hartley strain). The following applies: Cavia porcellus, po, read-out: ID50 (mg/kg), p.o., LTB4-induced bronchoconstriction.
Assay [5] deals with LTB4 -induced skin inflammation. Nature of the assay: LTB4 Induced Skin Inflammation (hairless guinea pig). Type of assay: in vivo. The conditions noted are these: for ED50: Cavia porcellus; for ID50, LTB4-induced skin inflammation, coinjection with LTB4: co-injection, 120 ng LTB4 intradermal. The procedure:
Skin inflammation is induced in the hairless guinea pig by the intradermal injection of 50 μl Gey's salt solution/10% DMSO containing 120 ng LTB4. Injections are performed along the dorsal skin of the animals. Test compounds are administered at various times by co-injection, intravenous or oral administration. The test animals are euthanized four to six hours after the LTB4 injection and uniform skin punches are prepared from the injection sites. Punches are homogenized in 0.5% hexadecyltrimethyl ammonium bromide for one minute and centrifuged for 20 minutes at 14,000× g. Leukocyte accumulation is measured by assaying for myeloperoxidase activity in a kinetic assay using dimethoxybenzidine as the substrate. […] Skin injected with 120 ng LTB4 can show myeloperoxidase levels of 0.30-0.40 U/punch. LTB4 induced leukocyte accumulation is confirmed histologically in hematoxylin/eosin stained sections.

Assay [6] deals with myeloperoxidase activity in mucosal scrapings. Nature of the assay: Acetic acid colitis (myeloperoxidase activity in mucosal scrapings). The class given is in vivo, Male Wistar rats. The following applies: rat, 10 mg/kg twice daily for 3 days, N=10. The procedure:
Male Wistar rats, weighing 175-225 g, are pretreated with test compound at 10 mg/kg, twice daily for 3 days (72 hours) prior to the evaluation of colitis. Colitis is induced after 2 days (48 hours) with an enema of 2 ml of 3.5% acetic acid; the acetic acid is neutralized after 10 seconds by 3 ml of phosphate-buffered saline, pH 7.4. After 3 days (72 hours), animals are sacrificed and myeloperoxidase activity in mucosal scrapings is determined as described in the skin inflammation model. Myeloperoxidase levels are presented as Units/gm mucosa.

Setting [7] is: oral, read-out: ID50, LTB4-induced skin inflammation, oral route.

pIC50, pKi: −log10 of the molar value. Read-outs that look alike come from different tables or passages of the source.

T1 sequence (Q15722 whole entry): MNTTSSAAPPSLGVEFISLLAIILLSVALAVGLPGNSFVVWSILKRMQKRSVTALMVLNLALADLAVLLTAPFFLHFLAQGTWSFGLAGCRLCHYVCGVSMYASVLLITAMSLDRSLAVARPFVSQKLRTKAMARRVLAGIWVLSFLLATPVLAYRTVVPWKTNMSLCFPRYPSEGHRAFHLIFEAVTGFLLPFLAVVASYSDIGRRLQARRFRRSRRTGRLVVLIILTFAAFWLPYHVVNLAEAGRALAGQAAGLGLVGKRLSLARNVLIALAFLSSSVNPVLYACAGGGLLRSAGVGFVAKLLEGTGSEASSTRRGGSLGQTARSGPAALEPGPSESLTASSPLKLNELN

Compound `CCCc1c(OCCCCCCOc2ccc(C(=O)c3cccc(C(=O)O)c3)cc2CCC(=O)O)ccc2c1OCCC2=O` [Example 22, 5-[(3-Carboxyphenyl)carbonyl]-2-[6-[(3,4-dihydro-4-oxo-8-propyl-2H-1-benzopyran-7-yl)oxy]hexyloxy]benzenepropanoic Acid] gave a negative logarithm of the Ki (pKi) in assay [1] of 8.52. The pIC50 in assay [2] was 9.00.

As for `CCCc1c(OCCCCCCc2cccc(OCCCCC(=O)O)c2CCC(=O)O)ccc2c1OCCC2=O` [Example 126, 2-(4-Carboxybutoxy)-6-[6-[(3,4-dihydro-4-oxo-8-propyl-2H-1-benzopyran-7-yl)oxy]hexyl]benzenepropanoic Acid], the values for the ED50 in assay [3] and in assay [4] were 0.12 mg/kg and 0.54 mg/kg, respectively. In addition, the negative logarithm of the IC50 (pIC50) in assay [2] is 8.70.

In turn, `CCCc1c(OCCCCCOc2ccc(C(=O)c3cccc(C(=O)O)c3)cc2CCC(=O)O)ccc2c1OCCC2=O` [Example 20, 5-[(3-Carboxyphenyl)carbonyl]-2-[5-[(3,4-dihydro-4-oxo-8-propyl-2H-1-benzopyran-7-yl)oxy]pentyloxy]benzenepropanoic Acid] had a pKi in assay [1] of 8.70. Moreover, the ED50 in assay [3] came to 1.46 mg/kg; in assay [5] (intravenous at the time of the intradermal LTB4 injection, read-out: ID50, LTB4-induced skin inflammation, intravenous administration), 6 mg/kg; in assay [5] (setting [7]), 30 mg/kg. Moreover, the “ID50, LTB4-induced skin inflammation, coinjection with LTB4” value (from here on “ID50, LTB4-induced skin inflammation”) in assay [5] was 100 ng. Further, the negative logarithm of the IC50 (pIC50) in assay [2] was 9.00.

In assay [1], `CCCc1c(OCCCCCCc2ccc(C(=O)c3cccc(C(=O)O)c3)cc2CCC(=O)O)ccc2c1OCCC2=O` [Example 99, 5-[(3-Carboxyphenyl)carbonyl]-2-[6-[(3,4-dihydro-4-oxo-8-propyl-2H-1-benzopyran-7-yl)oxy]hexyl]benzenepropanoic Acid] gave a negative logarithm of the Ki (pKi) of 9.00. Besides, the “ID50, LTB4-induced skin inflammation” value in assay [5] turned out to be 20 ng.

The compound `CCCc1c(OCCCCCCc2cccc(OCCCCCO)c2CCC(=O)O)ccc2c1OCCC2=O` [Example 180, 2-[6-[(3,4-Dihydro-4-oxo-8-propyl-2H-1-benzopyran-7-yl)oxy]hexyl]-6-[(5-hydroxypentyl)oxy]benzenepropanoic Acid] had a negative logarithm of the Ki (pKi) in assay [1] of 9.00. Moreover, the ED50 amounted to 0.14 mg/kg in assay [3] and 4.8 mg/kg in assay [4]. Further, the pIC50 in assay [2] is 9.00.

In assay [1], `CCCc1c(OCCCCCOc2ccc(C(=O)CCCC(=O)O)cc2CCC(=O)O)ccc2c1OCCC2=O` [Example 87, 3-(2-Carboxyethyl)-4-[5-[(3,4-dihydro-4-oxo-8-propyl-2H-1-benzopyran-7-yl)oxy]pentyloxy]-δ-oxobenzenepentanoic Acid] showed a pKi of 8.52. Also, the ED50 in assay [3] is 4.41 mg/kg; in assay [4], above 10 mg/kg. In addition, the “ID50, LTB4-induced skin inflammation” value in assay [5] is 20 ng.

In assay [1], `CCCc1c(OCCCCCOc2cccc(OCCCCC(=O)O)c2CCC(=O)O)ccc2c1OCCC2=O` [Example 62, 6-(4-Carboxybutoxy)-2-[5-[(3,4-dihydro-4-oxo-8-propyl-2H-1-benzopyran-7-yl)oxy]pentyloxy]benzenepropanoic Acid] showed a pKi of 9.10. The ED50 in assay [3] was determined as 2.06 mg/kg. Also, the “ID50, LTB4-induced skin inflammation” value in assay [5] is 35 ng.

For the compound `CCCc1c(OCCCCCCc2cccc(OCCCCCC(=O)O)c2CCC(=O)O)ccc2c1OCCC2=O` [Example 157, 2-[(5-Carboxypentyl)oxy]-6-[6-[(3,4-dihydro-4-oxo-8-propyl-2H-1-benzopyran-7-yl)oxy]hexyl]benzenepropanoic Acid], the ED50 in assay [3] was 0.07 mg/kg; in assay [4] it was 0.27 mg/kg. For the same compound, the negative-log IC50 (pIC50) in assay [2] is 9.00.

For `CCCc1c(OCCCCCCc2cccc(OCC(=O)O)c2CCC(=O)O)ccc2c1OCCC2=O` [Example 152, 2-(Carboxymethoxy)-6-[6-[(3,4-dihydro-4-oxo-8-propyl-2H-1-benzopyran-7-yl)oxy]hexyl]benzenepropanoic Acid], the pKi in assay [1] is 9.00. In assay [3], the ED50 is 2 mg/kg. In assay [2], the negative-log IC50 (pIC50) is 8.52.

Consider `CCCc1c(OCCCCCOc2ccc(Cl)cc2CCC(=O)O)ccc2c1OCCC2=O` [Example 17, 5-Chloro-2-[5-[(3,4-dihydro-4-oxo-8-propyl-2H-1-benzopyran-7-yl)oxy]pentyloxy]benzenepropanoic Acid], for which the negative logarithm of the Ki (pKi) in assay [1] is 7.44. In assay [3], the ED50 was 2.02 mg/kg. For the same compound, the negative logarithm of the IC50 (pIC50) in assay [2] is 7.15.

For the compound `CCCc1c(OCCCCOc2ccc(C(=O)c3cccc(C(=O)O)c3)cc2CCC(=O)O)ccc2c1OCCC2=O` [Example 24, 5-[(3-Carboxyphenyl)carbonyl]-2-[4-[(3,4-dihydro-4-oxo-8-propyl-2H-1-benzopyran-7-yl)oxy]butoxy]benzenepropanoic Acid], the negative-log Ki (pKi) in assay [1] is 7.82. Moreover, the negative logarithm of the IC50 (pIC50) in assay [2] was 7.96.

`CCCc1c(OCCCCCCc2ccc(OCCCC(=O)O)cc2CCC(=O)O)ccc2c1OCCC2=O` [Example 54, 5-(3-Carboxypropoxy)-2-[6-[(3,4-dihydro-4-oxo-8-propyl-2H-1-benzopyran-7-yl)oxy]hexyl]benzenepropanoic Acid]: the ED50 was 0.01 mg/kg in assay [3], 5 mg/kg in assay [5] (setting [7]) and 8.7 mg/kg in assay [4]. Besides, in assay [5], the “ID50, LTB4-induced skin inflammation” value came to 10 ng. Further, the “% inhibition (myeloperoxidase, acetic acid colitis)” value in assay [6] is 68%. Also, in assay [2], the pIC50 is 8.70.

Turning to `CCCc1c(OCCCCCOc2ccccc2CCC(=O)O)ccc2c1OCCC2=O` [Example 4, 2-[5-[(3,4-Dihydro-4-oxo-8-propyl-2H-1-benzopyran-7-yl)oxy]pentyloxy]benzenepropanoic Acid], the ED50 was 0.66 mg/kg in assay [3] and above 10 mg/kg in assay [4]. In assay [2], the pIC50 is 7.59.

In assay [1], `CCCc1c(OCCCCCCc2cccc(CCCCCC(=O)O)c2CCC(=O)O)ccc2c1OCCC2=O` [Example 169, 2-(2-Carboxyethyl)-3-[6-[(3,4-dihydro-4-oxo-8-propyl-2H-1-benzopyran-7-yl)oxy]hexyl]benzenehexanoic Acid] showed a negative-log Ki (pKi) of 9.00. Moreover, the results for the ED50 in assay [3] and in assay [4] were 0.13 mg/kg and 4.4 mg/kg, respectively. In assay [2], the negative-log IC50 (pIC50) is 9.00.
